Data published in patent US8765730B2 (Hoffmann-La Roche Inc, priority 2010, dated 2014).

What was measured:
[1] = IV infusion (0.8 μmol/kg/min) for 90 min, obese and normal human subjects, over 24 hours; cited from earlier work
human GPBAR1 receptor = molecular target: T1, human GPBAR1 receptor (Homo sapiens, UniProt Q8TDU6); test: functional cAMP assay in CHO-dhfr(minus) cells expressing human GPBAR1 receptors; type: cell-based; conditions: human EC50, functional cAMP assay, 30 min at 30° C.
T1 construct: expressed in transfected cells
T1 sequence (Q8TDU6 1-330): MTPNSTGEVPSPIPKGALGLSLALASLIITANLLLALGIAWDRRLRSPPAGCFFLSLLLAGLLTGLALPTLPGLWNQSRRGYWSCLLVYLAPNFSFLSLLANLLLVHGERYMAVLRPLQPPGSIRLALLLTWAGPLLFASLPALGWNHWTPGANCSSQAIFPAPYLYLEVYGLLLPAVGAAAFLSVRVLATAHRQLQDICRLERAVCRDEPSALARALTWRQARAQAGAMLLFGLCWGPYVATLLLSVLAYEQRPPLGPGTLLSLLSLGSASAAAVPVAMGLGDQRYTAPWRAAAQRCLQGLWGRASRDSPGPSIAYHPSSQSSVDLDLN
How it was run: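 Agonist cAMP read-out: stable GPBAR1 CHO-dhfr− clone, 30 min compound exposure at 30° C following 30 min IBMX (1 mM) preincubation in Krebs Ringer bicarbonate. Time-resolved energy-transfer detection gives EC50; parental CHO cells serve as counter-screen.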

Row | Compound | EC50 (human GPBAR1 receptor) [nM] | reduced food intake [1] [%]
1 | PYY3-36 |  | 33
2 | Cc1cc(Cl)ccc1C(C/C(=N\O)c1ccc(=O)n(C)c1)c1ccc(OC(C)C)c(F)c1 (stereo not shown) [Example 323, 5-{3-(4-Chloro-2-methyl-phenyl)-3-(3-fluoro-4-isopropoxy-phenyl)-1-[(E)-hydroxyimino]-propyl}-1-methyl-1H-pyridin-2-one] | 179 | 
3 | Cc1cc(Cl)ccc1C(C/C(=N\O)c1ccc(=O)n(C)c1)c1ccc(-c2ccc(C(=O)NCC(=O)O)cc2)cc1 (stereo not shown) [Example 229, (E)-2-(4′-(1-(4-chloro-2-methylphenyl)-3-(hydroxyimino)-3-(1-methyl-6-oxo-1,6-dihydropyridin-3-yl)propyl)biphenyl-4-ylcarboxamido)acetic acid] | 22 | 
4 | Cc1cc(/C(C[C@H](c2ccc(N3CC4(CSC4)C3)cc2)c2ccccc2C)=N/O)ccn1 [Example 371, (3R,E)-3-(4-(2-thia-6-azaspiro[3.3]heptan-6-yl)phenyl)-1-(2-methylpyridin-4-yl)-3-o-tolylpropan-1-one oxime] | 24 | 
5 | Cc1cc(/C(C[C@@H](c2ccc(N3CCC(CC(=O)O)CC3)cc2)c2ccc(F)cc2F)=N/O)ccn1 (single isomer, unassigned) [Example 430, (1-{4-[(+)-1-(2,4-Difluoro-phenyl)-3-[(E)-hydroxyimino]-3-(2-methyl-pyridin-4-yl)-propyl]-phenyl}-piperidin-4-yl)-acetic acid] | 21 | 
6 | Cc1cc(C(CC(c2ccccc2)c2ccccc2)=NO)cc(C)n1 (racemic) [Example 67, 1-(2,6-Dimethyl-pyridin-4-yl)-3,3-diphenyl-propan-1-one oxime] | 132 | 
7 | Cc1cnc(F)cc1C(CC(c1ccc(-c2ccc(C(=O)O)cc2)cc1)c1ccccc1C)=NO (racemic) [Example 130, 4′-{3-(2-Fluoro-5-methyl-pyridin-4-yl)-3-[hydroxyimino]-1-o-tolyl-propyl}-biphenyl-4-carboxylic acid] | 87 | 
8 | Cc1cc(/C(C[C@H](c2ccc(-c3ccc(C(=O)O)cc3)cc2)c2ccc(Cl)cc2C)=N/O)ccn1 [Example 297, 4′-[(R)-1-(4-Chloro-2-methyl-phenyl)-3-[(E)-hydroxyimino]-3-(2-methyl-pyridin-4-yl)-propyl]-biphenyl-4-carboxylic acid] | 13 | 
9 | Cc1ccccc1C(CC(=NO)c1ccncc1)c1cccc(-c2ccc(S(C)(=O)=O)cc2)c1 (racemic) [Example 29, 3-(4′-Methanesulfonyl-biphenyl-3-yl)-1-pyridin-4-yl-3-o-tolyl-propan-1-one oxime] | 400 | 
10 | Cc1cc(F)ccc1[C@H](C/C(=N\O)c1ccc(=O)n(C)c1)c1ccc(Br)cc1 (single isomer, unassigned) [Example 404, (−)-5-{3-(4-Bromo-phenyl)-3-(4-fluoro-2-methyl-phenyl)-1-[(E)-hydroxyimino]-propyl}-1-methyl-1H-pyridin-2-one] | 5 | 
11 | Cc1cc(/C(C[C@@H](c2ccc(N3CCC(C(=O)O)CC3)cc2)c2ccc(Cl)cc2C)=N/O)ccn1 [Example 285, 1-{4-[(S)-1-(4-Chloro-2-methyl-phenyl)-3-[(E)-hydroxyimino]-3-(2-methyl-pyridin-4-yl)-propyl]-phenyl}-piperidine-4-carboxylic acid] | 4 | 
12 | Cc1cc(/C(C[C@@H](c2ccc(C(=O)N(C)C)cc2)c2ccc(Cl)cc2C)=N/O)ccn1 [Example 283, 4-[(S)-1-(4-Chloro-2-methyl-phenyl)-3-[(E)-hydroxyimino]-3-(2-methyl-pyridin-4-yl)-propyl]-N,N-dimethyl-benzamide] | 51 | 
13 | Cc1cc(/C(C[C@H](c2ccc(NCC(CCl)C(=O)O)cc2)c2ccccc2C)=N/O)ccn1 (stereo partly drawn) [Example 280, 2-Chloromethyl-3-{4-[(R)-3-[(E)-hydroxyimino]-3-(2-methyl-pyridin-4-yl)-1-o-tolyl-propyl]-phenylamino}-propionic acid] | 19 | 
14 | Cn1cc(/C(CC(c2ccc(-c3ccc(C(=O)O)cc3)cc2)c2ccc(Cl)cc2F)=N/O)ccc1=O (single isomer, unassigned; (+)) [Example 241, (+)-4′-[1-(4-Chloro-2-fluoro-phenyl)-3-[(E)-hydroxyimino]-3-(1-methyl-6-oxo-1,6-dihydro-pyridin-3-yl)-propyl]-biphenyl-4-carboxylic acid] | 170 | 
15 | Cc1cc(/C(C[C@H](c2ccc(N3CCC(C(=O)NCCS(=O)(=O)O)CC3)cc2)c2ccccc2C)=N/O)ccn1 [Example 370, (R,E)-2-(1-(4-(3-(hydroxyimino)-3-(2-methylpyridin-4-yl)-1-o-tolylpropyl)phenyl)-piperidine-4-carboxamido)ethanesulfonic acid] | 1 | 

More lines, in order of falling EC50 (human GPBAR1 receptor), values ahead:

Row | EC50 (human GPBAR1 receptor) [nM] | Compound | reduced food intake [1] [%]
16 | 4760 | Cc1ccccc1C(C/C(=N\O)c1ccc(=O)n(C)c1)c1ccc(C(=O)O)cc1 (stereo not shown) [Example 360, 4-[3-[(E)-Hydroxyimino]-3-(1-methyl-6-oxo-1,6-dihydro-pyridin-3-yl)-1-o-tolyl-propyl]-benzoic acid] | 
17 | 4540 | Cc1ccccc1C(C/C(=N\O)c1cncc(Br)c1)c1cccc(Br)c1 (stereo not shown) [Example 123, (E)-3-(3-Bromo-phenyl)-1-(5-bromo-pyridin-3-yl)-3-o-tolyl-propan-1-one oxime] | 
18 | 1890 | O=C(O)c1cccc(C(C/C(=N\O)c2ccncc2)c2ccccc2)c1 (stereo not shown) [Example 69, 3-{3-[(E)-Hydroxyimino]-1-phenyl-3-pyridin-4-yl-propyl}-benzoic acid] | 
19 | 1310 | Cn1cc(/C(CC(CCCC(F)(F)F)c2ccc(Br)cc2)=N/O)ccc1=O (stereo not shown) [Example 175, 5-{3-(4-Bromo-phenyl)-7,7,7-trifluoro-1-[(E)-hydroxyimino]-heptyl}-1-methyl-1H-pyridin-2-one] | 
20 | 1160 | Cn1cc(/C(CC(c2ccc(C(=O)NC3CCOCC3)c(F)c2)c2ccccc2Cl)=N/O)ccc1=O (stereo not shown) [Example 219, (E)-4-(1-(2-Chlorophenyl)-3-(hydroxyimino)-3-(1-methyl-6-oxo-1,6-dihydropyridin-3-yl)propyl)-2-fluoro-N-(tetrahydro-2H-pyran-4-yl)benzamide] | 
21 | 847 | Cc1ccccc1C(Cc1ccc(Br)cc1)/C(=N/O)c1ccncc1 (stereo not shown) [Example 43, (Z)-3-(4-Bromo-phenyl)-1-pyridin-4-yl-2-o-tolyl-propan-1-one oxime] | 
22 | 416 | COC(=O)c1ccc(-c2ccc(C(C/C(=N\O)c3ccnc(C)c3)c3ccc(Cl)cc3F)cc2)cc1Cl (stereo not shown) [Example 450, 3-Chloro-4′-[1-(4-chloro-2-fluoro-phenyl)-3-[(E)-hydroxyimino]-3-(2-methyl-pyridin-4-yl)-propyl]-biphenyl-4-carboxylic acid methyl ester] | 
23 | 193 | Cn1cc(/C(CC(c2ccc(O)cc2)c2ccc(Cl)cc2F)=N/O)ccc1=O (stereo not shown) [Example 318, (E)-5-(3-(4-Chloro-2-fluorophenyl)-1-(hydroxyimino)-3-(4-hydroxyphenyl)propyl)-1-methylpyridin-2(1H)-one] | 
24 | 90 | COCCOCCn1cc(/C(CC(c2ccc(S(C)(=O)=O)cc2)c2ccc(Cl)cc2C)=N/O)ccc1=O (stereo not shown) [Example 339, (E)-5-(3-(4-chloro-2-methylphenyl)-1-(hydroxyimino)-3-(4-(methylsulfonyl)phenyl)propyl)-1-(2-(2-methoxyethoxy)ethyl)pyridin-2(1H)-one] | 
25 | 46 | Cc1cc(/C(CC(c2ccc(Br)cc2)c2ccccc2C(F)(F)F)=N/O)ccn1 (stereo not shown) [Example 132, (E)-3-(4-Bromo-phenyl)-1-(2-methyl-pyridin-4-yl)-3-(2-trifluoromethyl-phenyl)-propan-1-one oxime] | 
26 | 40 | Cc1cc(F)ccc1C(C/C(=N\O)c1ccc(=O)n(C)c1)c1ccc(-c2ccc(-c3nnn[nH]3)cc2)cc1 (stereo not shown) [Example 260, 5-{3-(4-Fluoro-2-methyl-phenyl)-1-[(E)-hydroxyimino]-3-[4′-(1H-tetrazol-5-yl)-biphenyl-4-yl]-propyl}-1-methyl-1H-pyridin-2-one] | 
27 | 30 | Cc1cc(/C(C[C@H](c2ccc(-c3nnc(C4CCOCC4)o3)cc2)c2ccccc2C)=N/O)ccn1 [Example 421, ((−), E)-1-(2-Methyl-pyridin-4-yl)-3-{4-[5-(tetrahydro-pyran-4-yl)-[1,3,4]oxadiazol-2-yl]-phenyl}-3-o-tolyl-propan-1-one oxime] | 
28 | 4 | CCOc1ccc([C@@H](C/C(=N\O)c2ccnc(C)c2)c2ccccc2C)cc1 [Example 364, (R)-3-(4-Ethoxy-phenyl)-1-(2-methyl-pyridin-4-yl)-3-o-tolyl-propan-1-one oxime] | 
